From patent publication US20080058309A1, “Novel Compounds 171” (ASTRAZENECA AB, priority 2006, published 2008) come the findings set out here.

Where a name gives a salt, the structure may show the parent alone.

The target of one series is T1, P2X7 receptor (Homo sapiens, UniProt Q99572).
T1 construct: 200 μl of a suspension of THP-1 cells; endogenous in cells; host or cells: THP-1 cells
T1 sequence (Q99572 1-595): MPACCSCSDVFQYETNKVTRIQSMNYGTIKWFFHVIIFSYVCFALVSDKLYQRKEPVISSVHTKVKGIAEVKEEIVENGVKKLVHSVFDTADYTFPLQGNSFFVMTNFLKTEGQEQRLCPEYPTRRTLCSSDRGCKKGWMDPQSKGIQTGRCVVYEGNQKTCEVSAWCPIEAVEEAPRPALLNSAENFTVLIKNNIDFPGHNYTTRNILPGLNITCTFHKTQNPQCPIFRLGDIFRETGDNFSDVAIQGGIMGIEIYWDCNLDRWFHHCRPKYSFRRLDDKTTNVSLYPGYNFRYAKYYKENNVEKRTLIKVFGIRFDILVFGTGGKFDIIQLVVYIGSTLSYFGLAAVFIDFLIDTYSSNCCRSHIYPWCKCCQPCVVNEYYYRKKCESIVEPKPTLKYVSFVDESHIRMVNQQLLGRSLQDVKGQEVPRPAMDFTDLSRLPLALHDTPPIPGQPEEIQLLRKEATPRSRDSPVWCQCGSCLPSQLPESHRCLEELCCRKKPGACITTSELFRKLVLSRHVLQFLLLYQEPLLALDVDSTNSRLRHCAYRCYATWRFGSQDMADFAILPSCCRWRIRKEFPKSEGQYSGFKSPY
As to the kind of experiment: P2X7 receptor antagonist test: bbATP-induced ethidium bromide fluorescence in THP-1 cells. It counts as cell-based. Particulars: negative logarithm of concentration reducing bbATP agonist activity by 50%, 10^-5M bbATP, 37° C. one hour. From the text:
Certain compounds such as benzoylbenzoyl adenosine triphosphate (bbATP) are known to be agonists of the P2X7 receptor, effecting the formation of pores in the plasma membrane (Drug Development Research (1996), 37(3), p. 126). Consequently, when the receptor is activated using bbATP in the presence of ethidium bromide (a fluorescent DNA probe), an increase in the fluorescence of intracellular DNA-bound ethidium bromide is observed. The increase in fluorescence can be used as a measure of P2X7 receptor activation and therefore to quantify the effect of a compound on the P2X7 receptor.
In this manner, each of the title compounds of the Examples was tested for antagonist activity at the P2X7 receptor. Thus, the test was performed in 96-well flat bottomed microtitre plates, the wells being filled with 250 μl of test solution comprising 200 μl of a suspension of THP-1 cells (2.5×10^6 cells/ml) containing 10^−4M ethidium bromide, 25 μl of a high potassium buffer solution containing 10^−5M bbATP, and 25 μl of the high potassium buffer solution containing concentrations of test compound typically from 30 μM-0.001 μM. The plate was covered with a plastics sheet and incubated at 37° C. for one hour. The plate was then read in a Perkin-Elmer fluorescent plate reader, excitation 520 nm, emission 595 nm, slit widths: Ex 15 nm, Em 20 nm. […]
`O=C(CSc1ccccc1)Nc1c(Cl)ccc2nc(N3CC[C@@H](O)C3)ccc12` [Example 6, N-[6-Chloro-2-[(3R)-3-hydroxy-1-pyrrolidinyl]-5-quinolinyl]-2-(phenylthio)-acetamide]: the IC50 is 398 nM.
The compound `N#Cc1cccc(NCC(=O)Nc2c(Cl)ccc3nc(N4CC[C@@H](O)C4)ccc23)c1` [Example 7, N-[6-Chloro-2-[(3R)-3-hydroxy-1-pyrrolidinyl]-5-quinolinyl]-2-[(3-cyanophenyl)amino]-acetamide] had an IC50 of 79.4 nM.

System in the next series: not given
Test: not given
Settings: not given
`N#Cc1ccc(NCC(=O)Nc2c(Cl)ccc3nc(N4CC[C@@H](O)C4)ccc23)cc1` came in with a melting point of 230 to 233 °C.
Turning to `O=C(CSc1ccccc1)Nc1c(Cl)ccc2nc(N3CC[C@@H](O)C3)ccc12` [Example 6, N-[6-Chloro-2-[(3R)-3-hydroxy-1-pyrrolidinyl]-5-quinolinyl]-2-(phenylthio)-acetamide], the melting point fell in the range of 246 to 249 °C.
With `O=C(CNc1ccccc1)Nc1c(Cl)ccc2nc(N3CC[C@@H](O)C3)ccc12`, the melting point fell in the range of 230 to 232 °C.
For `O=C(CNc1ccc(Cl)cc1)Nc1c(Cl)ccc2nc(N3CC[C@@H](O)C3)ccc12` (as salt: hydrochloride), the melting point is 175 °C (dec.).
Take `O=C(CNc1cccc(Cl)c1)Nc1c(Cl)ccc2nc(N3CC[C@@H](O)C3)ccc12` (as salt: hydrochloride): the melting point was 180 °C (dec.).
`O=C(CNc1ccc(F)c(F)c1)Nc1c(Cl)ccc2nc(N3CC[C@@H](O)C3)ccc12` displayed a melting point of 238 to 240 °C.
`O=C(CNc1cccc(F)c1)Nc1c(Cl)ccc2nc(N3CC[C@@H](O)C3)ccc12` gave a melting point of 218 to 220 °C.
The compound `O=C(COc1ccccc1)Nc1c(Cl)ccc2nc(N3CC[C@@H](O)C3)ccc12` showed a melting point of 233 to 235 °C.
The same measure, in the same setting: the figure for `CC(O)C(O)c1ccc2c(NC(=O)CNc3ccc(F)cc3)c(Cl)ccc2n1` (stereo not shown) is 135 to 138 °C; for `O=C(CNc1ccc(F)cc1)Nc1c(Cl)ccc2nc(N3CC[C@@H](O)C3)ccc12` it is 242 to 246 °C; for `O=C(CNc1ccccc1Cl)Nc1c(Cl)ccc2nc(N3CC[C@@H](O)C3)ccc12` it is 215 to 219 °C.
